The values below come from paper PMC4658304 (Nuclear medicine and biology, 2015).

Structures are written as SMILES. Where “and” joins values, the source holds several entries; their conditions need not be identical. Equal values may be shown once. Read-outs that look alike come from different tables or passages of the source. A value given as a limit tells only on which side of the number the result lay.

Series [1] has as its target T1, mGluR1 (Macaca mulatta, UniProt I2CU04). As to conditions: cited from earlier work; for peak uptake in mGluR1-rich cerebellum: rhesus monkey.
Series [2] is described as follows: Stability in sodium phosphate buffer. The following applies: sodium phosphate buffer 0.15 M pH 7.4, 57 min, room temperature, n = 4. In kind it is physicochemical.
A short description of series [3]: Stability of formulated radioligand in saline containing ethanol. In kind it is physicochemical. As to conditions: saline containing ethanol (10% v/v), 1 h, room temperature, HPLC.
A short description of a further series: Plasma free fraction. In kind it is in vitro ADME. As to conditions: rhesus monkey plasma, pre-blocked condition (JNJ16259685 3 mg/kg i.v.), n = 3.
The nature of series [4]: Stability in monkey whole blood and plasma. In kind it is in vitro ADME. As to conditions: 30 min, room temperature.
The nature of series [5]: Emergence of radiometabolites in monkey plasma. In kind it is in vivo, rhesus monkey.
The target of series [6] is T1, mGluR1. The following applies: baseline.
For series [7] the following is noted: monkey brain homogenates, 30 min, room temperature.
For series [8] the following is noted: cited from earlier work.
For series [9], the target named is T1, mGluR1. Briefly: Two-tissue compartmental modeling of PET data.
The test system of series [10] is mGluR1. The following applies: read-out: IC50 (mGluR1 affinity); mGluR1 radioligand affinity; cited from earlier work.

T1 sequence (I2CU04 19-1195): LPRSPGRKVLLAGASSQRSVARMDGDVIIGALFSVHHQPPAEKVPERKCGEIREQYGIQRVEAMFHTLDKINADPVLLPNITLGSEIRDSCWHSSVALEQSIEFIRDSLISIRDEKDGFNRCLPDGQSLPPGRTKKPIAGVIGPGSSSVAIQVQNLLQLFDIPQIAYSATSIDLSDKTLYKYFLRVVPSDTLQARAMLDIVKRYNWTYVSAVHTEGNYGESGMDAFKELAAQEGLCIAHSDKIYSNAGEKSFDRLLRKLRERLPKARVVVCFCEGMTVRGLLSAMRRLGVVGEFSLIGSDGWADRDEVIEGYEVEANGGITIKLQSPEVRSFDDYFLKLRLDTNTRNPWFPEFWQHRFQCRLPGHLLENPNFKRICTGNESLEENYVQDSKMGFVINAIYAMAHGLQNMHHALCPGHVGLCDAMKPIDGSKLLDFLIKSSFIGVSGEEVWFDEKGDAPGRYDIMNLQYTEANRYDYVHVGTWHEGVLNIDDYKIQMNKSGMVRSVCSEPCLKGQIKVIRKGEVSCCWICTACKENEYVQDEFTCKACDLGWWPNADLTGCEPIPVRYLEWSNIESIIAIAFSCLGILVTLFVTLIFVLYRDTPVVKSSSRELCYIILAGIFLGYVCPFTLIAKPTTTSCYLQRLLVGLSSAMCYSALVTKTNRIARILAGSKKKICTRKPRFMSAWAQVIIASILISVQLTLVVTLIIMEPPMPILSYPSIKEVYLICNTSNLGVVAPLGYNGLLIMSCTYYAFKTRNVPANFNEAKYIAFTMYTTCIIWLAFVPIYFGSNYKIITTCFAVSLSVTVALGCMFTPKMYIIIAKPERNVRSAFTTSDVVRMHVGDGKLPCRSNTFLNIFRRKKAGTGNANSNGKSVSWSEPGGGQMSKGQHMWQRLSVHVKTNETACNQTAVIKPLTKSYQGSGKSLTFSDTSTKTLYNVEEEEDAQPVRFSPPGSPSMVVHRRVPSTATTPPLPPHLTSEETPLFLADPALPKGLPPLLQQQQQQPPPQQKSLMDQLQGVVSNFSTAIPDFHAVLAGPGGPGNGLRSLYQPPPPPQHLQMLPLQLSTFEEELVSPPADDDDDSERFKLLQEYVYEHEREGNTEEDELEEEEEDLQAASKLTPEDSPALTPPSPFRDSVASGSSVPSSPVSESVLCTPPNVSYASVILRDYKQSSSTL

For `Cc1ccc(C(=O)N(C)c2nc(-c3cc(NC(C)C)ncn3)cs2)cc1` [[^11C]ITDM, [^11C]N-[4-[6-(isopropylamino)pyrimidin-4-yl]-1,3-thiazol-2-yl]-4-methyl-N-methylbenzamide], on mGluR1 [1], the “peak uptake in mGluR1-rich cerebellum” value is reported as below 1.3 SUV.

In the case of `CNc1cc(-c2csc(N(C)C(=O)c3ccc(F)cc3)n2)ncn1` [[^11C]FIMX, [carbonyl-^11C]4-Fluoro-N-methyl-N-(4-(6-(methylamino)pyrimidin-4-yl)thiazol-2-yl)benzamide], the “remaining fraction of original radiochemical purity in buffer” value in series [2] came to 79.1 ± 3.3%. For the same compound, the “unchanged radioligand in formulation” value in series [3] was above 97%. The “plasma free fraction (fP)” value in “Plasma free fraction” is given as 0.042 ± 0.003. For the same compound, the “unchanged radioligand in plasma” value in series [4] (monkey plasma) is recorded as 91%. For the same compound, the “unchanged radioligand in whole blood” value in series [4] (monkey whole blood) is given as 92%. Moreover, the “percentage of total plasma radioactivity represented by parent” value in series [5] (baseline, 10 min after i.v. injection) is 31%; in series [5] (baseline, 30 min after i.v. injection), 21%; in [5] (preblocked condition, 10 min after i.v. injection), 43%; in series [5] (preblocked condition, 30 min after i.v. injection) it was 31%. Further, the “peak radioactivity uptake in frontal cortex” value at mGluR1 [6] is recorded as 4.23 SUV. Moreover, the “peak radioactivity uptake in hippocampus” value on mGluR1 [6] worked out at 4.47 SUV. In addition, the “peak radioactivity uptake in occipital cortex” value at mGluR1 [6] is recorded as 3.67 SUV. Also, the “peak radioactivity uptake in thalamus” value on mGluR1 [6] was 6.00 SUV. Moreover, the “cerebellum radioactivity level at 85 min” value on mGluR1 [6] (85 min after injection) is 5.74 SUV. Also, the “decrease of cerebellum radioactivity from peak” value on mGluR1 [6] (at 85 min after injection) is 32%. Further, the “time of peak regional brain radioactivity uptake” value at mGluR1 [6] (i.v.) is recorded as “around 12.5 min”. Also, at mGluR1 [6] (receptor-rich cerebellum), the “peak radioactivity uptake in cerebellum” value is 8.50 SUV and 8.5 SUV. Moreover, in series [7], the “unchanged radioligand in brain homogenates” value is given as 99.4%. In series [8], the “logD obtained without correction for instability” value is given as 2.52. Moreover, the “imaging time after which VT appeared stable in all brain regions” value on mGluR1 [9] (baseline) is listed as 60 min. In addition, on mGluR1 [9] (baseline scans, two-tissue compartment model), the “imaging time by which VT is within 10% of terminal value” is recorded as at most 40 min. Besides, the “reduction of VT in cerebellum by preblock” value on mGluR1 [9] (baseline vs preblock with JNJ16259685) is around 90%. The compound also returned a VT in cerebellum on mGluR1 [9] (rhesus monkey cerebellum, baseline) of 13 mL/cm^3.

Take `CNc1cc(-c2csc(N(C)C(=O)c3ccc([18F])cc3)n2)ncn1` [[^18F]FIMX, [^18F]4-fluoro-N-methyl-N-(4-(6-(methylamino)pyrimidin-4-yl)thiazol-2-yl)benzamide]: the IC50 – broadly, the concentration that gives 50% inhibition – with mGluR1 [10] is 1.8 nM. Also, the “decrease of cerebellum radioactivity from peak” value at mGluR1 [1] (at 90 min after injection) is on record as 37%.

In the case of `COc1ccc(C(=O)N(C)c2nc(-c3cc(NC(C)C)ncn3)cs2)cc1` [[^11C]ITMM, [^11C]N-[4-[6-(isopropylamino)pyrimidin-4-yl]-1,3-thiazol-2-yl]-4-methoxy-N-methylbenzamide], the “peak uptake in mGluR1-rich cerebellum” value on mGluR1 [1] is listed as below 1.3 SUV.
